Tests used:
[1] = molecular target: Integrin alpha-V/beta-5 (Homo sapiens); test: Displacement of [125I]echistatin from integrin alphaVbeta5 receptor in human placenta by microplate scintillation counter
Integrin alpha-V/beta-3 = Integrin alpha-V/beta-3 (Homo sapiens, UniProt P05106+P06756)
Sequence of Integrin alpha-V/beta-3 (P05106 27-788 limits assumed): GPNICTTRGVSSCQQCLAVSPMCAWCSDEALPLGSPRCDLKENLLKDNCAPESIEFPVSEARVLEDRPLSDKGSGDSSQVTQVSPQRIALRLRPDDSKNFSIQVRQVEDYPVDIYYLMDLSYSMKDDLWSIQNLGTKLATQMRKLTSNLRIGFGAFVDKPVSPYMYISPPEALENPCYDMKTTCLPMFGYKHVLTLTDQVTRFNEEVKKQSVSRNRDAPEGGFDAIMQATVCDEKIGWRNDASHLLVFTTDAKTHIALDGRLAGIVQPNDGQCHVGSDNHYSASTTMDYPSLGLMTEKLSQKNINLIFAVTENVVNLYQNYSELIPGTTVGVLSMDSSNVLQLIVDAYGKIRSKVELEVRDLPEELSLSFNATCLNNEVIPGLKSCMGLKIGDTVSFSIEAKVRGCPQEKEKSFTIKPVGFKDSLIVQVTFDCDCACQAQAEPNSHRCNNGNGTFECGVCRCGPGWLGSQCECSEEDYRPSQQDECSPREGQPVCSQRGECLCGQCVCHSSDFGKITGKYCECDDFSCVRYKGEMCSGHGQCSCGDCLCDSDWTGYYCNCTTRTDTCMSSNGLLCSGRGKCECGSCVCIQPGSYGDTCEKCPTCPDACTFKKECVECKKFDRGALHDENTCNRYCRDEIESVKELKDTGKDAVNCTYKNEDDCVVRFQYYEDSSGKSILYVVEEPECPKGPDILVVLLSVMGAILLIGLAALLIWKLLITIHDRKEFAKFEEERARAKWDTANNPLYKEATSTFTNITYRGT
Sequence of Integrin alpha-V/beta-3 (P06756 31-889 partner limits assumed): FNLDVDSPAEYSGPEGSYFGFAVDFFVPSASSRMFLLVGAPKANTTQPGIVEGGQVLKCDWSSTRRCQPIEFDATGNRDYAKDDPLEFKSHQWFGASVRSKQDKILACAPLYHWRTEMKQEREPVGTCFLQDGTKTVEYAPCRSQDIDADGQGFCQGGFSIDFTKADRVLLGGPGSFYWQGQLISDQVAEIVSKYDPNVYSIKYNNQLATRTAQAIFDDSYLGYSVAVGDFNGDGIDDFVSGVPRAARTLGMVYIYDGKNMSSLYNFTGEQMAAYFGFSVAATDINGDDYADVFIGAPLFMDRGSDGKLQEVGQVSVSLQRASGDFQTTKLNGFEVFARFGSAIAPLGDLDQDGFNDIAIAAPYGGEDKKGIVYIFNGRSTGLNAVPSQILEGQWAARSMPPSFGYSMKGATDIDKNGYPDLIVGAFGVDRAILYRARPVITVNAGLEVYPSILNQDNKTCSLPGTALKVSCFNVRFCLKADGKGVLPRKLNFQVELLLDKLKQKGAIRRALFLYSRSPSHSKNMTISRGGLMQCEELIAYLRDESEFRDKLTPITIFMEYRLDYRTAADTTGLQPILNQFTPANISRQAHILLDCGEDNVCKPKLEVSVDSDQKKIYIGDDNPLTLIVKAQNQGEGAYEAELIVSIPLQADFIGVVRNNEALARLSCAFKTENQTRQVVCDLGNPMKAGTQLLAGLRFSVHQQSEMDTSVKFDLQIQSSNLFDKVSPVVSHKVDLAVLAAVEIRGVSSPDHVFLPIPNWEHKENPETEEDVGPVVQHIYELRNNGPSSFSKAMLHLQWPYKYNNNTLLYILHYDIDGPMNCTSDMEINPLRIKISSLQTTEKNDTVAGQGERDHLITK
Sequence of Integrin alpha-V/beta-3 (P06756 891-1048 partner limits assumed): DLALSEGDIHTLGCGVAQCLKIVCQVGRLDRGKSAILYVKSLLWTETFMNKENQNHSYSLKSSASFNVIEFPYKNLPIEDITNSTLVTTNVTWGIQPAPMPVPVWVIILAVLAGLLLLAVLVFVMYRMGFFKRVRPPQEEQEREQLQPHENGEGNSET
Description: Displacement of [125I]echistatin from integrin alphaVbeta3 receptor in human placenta by microplate scintillation counter

Question: How did the IC50 [1] turn out when `NC(N)=NCCC[C@@H]1NC(=O)CNC(=O)[C@H](CC(=O)O)N[C@@H]2CCC[C@@H]3CC[C@@H](C1=O)N3C2=O` was run?
Answer: 0.9 nM

Question: What about the IC50 (Integrin alpha-V/beta-3) of the same molecule?
Answer: 5.64 nM
